From US20250049025A1, “SURFACTANTS FOR USE IN AGRICULTURAL FORMULATIONS” (AdvanSix Resins & Chemicals LLC, priority 2023, published 2025) come the findings set out here.

What is called MIC is the lowest concentration found to suppress growth.

Like-named read-outs stand apart in the source and are kept apart here.

In one data set the test system is S. aureus (6538). The data set can be described thus: Minimum inhibitory concentration (MIC) test, serial dilution. The data set is classed as cell-based, Staphylococcus aureus. The text has this: (§1) Surfactants of the present disclosure have been shown in a standard protocol to assess antimicrobial activities called minimum inhibitory concentration (MIC) tests.
(§2) The antimicrobial properties of surfactants were examined using known methods and standard protocols, and various types of microorganisms as treatment targets. More specifically a minimum inhibitory concentration (MIC) test protocol was applied, using serial dilution method, giving concentration-dependent microorganism growth inhibition measurements against gram positive (e.g., Streptococcus mutans, which is anaerobic, and Staphylococcus aureus, which is usually aerobic but can grow also anaerobically), gram negative (e.g., Escherichia coli, which is anaerobic, or Pseudomonas aeruginosa, which is aerobic).
(§3) Bacteria were propagated overnight in a suitable growth medium, which was a Tryptic Soy Broth. Prior to testing, the concentrations of the test organisms were established using a spectrophotometer that can measure optical density. Those bacterial samples were then diluted to about 1E3 to 1E4 CFU/mL. Thereafter, […] of the bacterial cultures thus prepared were inoculated into test wells of a 96-well plate, each containing suitable growth media, which was Tryptic Soy Agar, and once the bacterial cultures were inoculated, these wells were then treated with the test specimen, serially diluted, incubated at a temperature of 37+/−1° C. and relative humidity of not less than 90% for about 24+/−1 hour.
(§4) Test surfactants were prepared into dilution series. All dilutions were conducted serially using a multichannel pipetter into 96-well microtiter plates.
(§5) The MIC was then used to determine the approximate concentration of the test surfactant at which there was inhibition of bacterial growth. […]
(§6) Test measurements were made on replicate 96-well plates, and reported as the rounded whole number average of the determined MIC. […] Measurement variability was then reported based on the determined average in the form of MIC+/−.

A short description of data set [1]: Critical micelle concentration and minimum surface tension from surface tension versus concentration in water (Wilhelmy plate method). Type of data set: physicochemical. The conditions noted are these: for critical micelle concentration (CMC) / plateau value of minimum surface tension: in water; for interfacial activity / surfactant properties (in words): judged from CMC and minimum surface tension. The text has this:
These properties may be measured and described by various methods. One method by which surfactants may be described is by the molecule's critical micelle concentration (CMC). CMC may be defined as the concentration of a surfactant at which micelles form, and above which all additional surfactant is incorporated into micelles.
As surfactant concentration increases, surface tension decreases. Once the surface is completely overlaid with surfactant molecules, micelles begin to form. This point represents the CMC, as well as the minimum surface tension. Further addition of surfactant will not further affect the surface tension. CMC may therefore be measured by observing the change in surface tension as a function of surfactant concentration. One such method for measuring this value is the Wilhemy plate method. A Wilhelmy plate is usually a thin iridium-platinum plate attached to a balance by a wire and placed perpendicularly to the air-liquid interface. The balance is used to measure the force exerted on the plate by wetting. This value is then used to calculate the surface tension (γ) according to Equation 1: […]
wherein I is equal to the wetted perimeter (2w+2d, in which w and d are the plate thickness and width, respectively) and cos θ, the contact angle between the liquid and the plate, is assumed to be 0 in the absence of an extant literature value.
Nuclear magnetic resonance (NMR) spectroscopy was performed on a Bruker 500 MHz spectrometer. The critical micelle concentration (CMC) was determined by the Wilhelmy plate method at 23° C. with a tensiometer (DCAT 11, DataPhysics Instruments GmbH) equipped with a Pt—Ir plate. Dynamic surface tension was determined with a bubble pressure tensiometer (Krüss BP100, Krüss GmbH), at 23° C. Contact angle was determined with the optical contact angle goniometer (OCA 15 Pro, DataPhysics GmbH) equipped with a digital camera.

Another data set deals with S. mutans (25715). As to the kind of experiment: Minimum inhibitory concentration (MIC) test, serial dilution. The data set is classed as cell-based, Streptococcus mutans.
From the text: as §1, §2, §3, §4, §5, §6

The next data set concerns E. coli (8739). The description is as above. Type of data set: cell-based, Escherichia coli. Particulars: 24 hours, serial dilution 1.7 fold.
From the text: as §1, §2
(§7) Bacteria were propagated overnight in a suitable growth medium, which was a Tryptic Soy Broth. Prior to testing, the concentrations of the test organisms were established using a spectrophotometer that can measure optical density. Those bacterial samples were then diluted to about 1E3 to 1E4 CFU/mL. […]
as §6

The next data set concerns P. aeruginosa (9027). The data set is described as above. Type of data set: cell-based, Pseudomonas aeruginosa. The conditions noted are these: 24 hours, serial dilution 1.7 fold, 400 ppm max.
From the text: as §1, §2, §7, §6

Setting [2] is: 24 hours, serial dilution 1.7 fold, 20 ppm max.

For the compound `CCOP(=O)(CCC[N+](C)(C)CCCCCC(=O)NCCC[Si](O[Si](C)(C)C)(O[Si](C)(C)C)O[Si](C)(C)C)OCC` [Surfactant 6, N-(3-(diethoxyphosphoryl)propyl)-6-((3-(1,1,1,5,5,5-hexamethyl-3-((trimethylsilyl)oxy)trisiloxan-3-yl)propyl)amino)-N,N-dimethyl-6-oxohexan-1-aminium bromide], the MIC in the data set with S. aureus (6538) (Staphylococcus aureus, 24 h) was 138 µg/mL; against S. mutans (25715) (Streptococcus mutans, 24 h), 81 µg/mL. For the same compound, the “critical micelle concentration (CMC)” value in data set [1] (23° C.) was “about 0.3989 mmol”. In data set [1] (23° C.), the “plateau value of minimum surface tension” value is reported as “about 20.48 mN/m”. Also, the “interfacial activity / surfactant properties (in words)” value in data set [1] is “outstanding interfacial activity”.

Turning to `C[N+](C)(CCO)CCCCCC(=O)NCCC[Si](O[Si](C)(C)C)(O[Si](C)(C)C)O[Si](C)(C)C` [Surfactant 8, 6-((3-(1,1,1,5,5,5-hexamethyl-3-((trimethylsilyl)oxy)trisiloxan-3-yl)propyl)amino)-N-(2-hydroxyethyl)-N,N-dimethyl-6-oxohexan-1-aminium iodide], in data set [1] (23° C.), the “critical micelle concentration (CMC)” value is recorded as “about 0.9986 mmol” and the “plateau value of minimum surface tension” value is “about 20.41 mN/m”. The “interfacial activity / surfactant properties (in words)” value in data set [1] is on record as “outstanding interfacial activity”.

For `C[N+](C)(CCCCCC(=O)NCCC[Si](O[Si](C)(C)C)(O[Si](C)(C)C)O[Si](C)(C)C)CCC[N+](C)(C)CCCCCC(=O)NCCC[Si](O[Si](C)(C)C)(O[Si](C)(C)C)O[Si](C)(C)C` [Surfactant 10, N^1,N^3-bis(6-((3-(1,1,1,5,5,5-hexamethyl-3-((trimethylsilyl)oxy)trisiloxan-3-yl)propyl)amino)-6-oxohexyl)-N^1,N^1,N^3,N^3-tetramethylpropane-1,3-diaminium dibromide], in data set [1] (23° C.), the “critical micelle concentration (CMC)” value was “about 0.0631 mmol” and the “plateau value of minimum surface tension” value is listed as “about 22.12 mN/m”. Further, in data set [1], the “interfacial activity / surfactant properties (in words)” value was “has interfacial activity”.

As to `C#CC[N+](C)(C)CCCCCC(=O)NCCC[Si](O[Si](C)(C)C)(O[Si](C)(C)C)O[Si](C)(C)C` [Surfactant 4, 6-((3-(1,1,1,5,5,5-hexamethyl-3-((trimethylsilyl)oxy)trisiloxan-3-yl)propyl)amino)-N,N-dimethyl-6-oxo-N-(prop-2-yn-1-yl)hexan-1-aminium bromide], in data set [1] (23° C.), the “critical micelle concentration (CMC)” value is recorded as “about 0.2419 mmol” and the “plateau value of minimum surface tension” value is “about 20.54 mN/m”. The “interfacial activity / surfactant properties (in words)” value in data set [1] is reported as “outstanding interfacial activity”.

With `COCCOCC[N+](C)(C)CCCCCC(=O)NCCC[Si](O[Si](C)(C)C)(O[Si](C)(C)C)O[Si](C)(C)C` [Surfactant 5, 6-((3-(1,1,1,5,5,5-hexamethyl-3-((trimethylsilyl)oxy)trisiloxan-3-yl)propyl)amino)-N-(2-(2-methoxyethoxy)ethyl)-N,N-dimethyl-6-oxohexan-1-aminium bromide], in data set [1] (23° C.), the “critical micelle concentration (CMC)” value is on record as “about 0.4622 mmol” and the “plateau value of minimum surface tension” value is reported as “about 20.40 mN/m”. In addition, in data set [1], the “interfacial activity / surfactant properties (in words)” value is “outstanding interfacial activity”.

`C=CC[N+](C)(C)CCCCCC(=O)NCCC[Si](O[Si](C)(C)C)(O[Si](C)(C)C)O[Si](C)(C)C` [Surfactant 3, N-allyl-6-((3-(1,1,1,5,5,5-hexamethyl-3-((trimethylsilyl)oxy)trisiloxan-3-yl)propyl)amino)-N,N-dimethyl-6-oxohexan-1-aminium iodide]: in data set [1] (23° C.), the “critical micelle concentration (CMC)” value was “about 1.3599 mmol” and the “plateau value of minimum surface tension” value is “about 20.67 mN/m”. Besides, the “interfacial activity / surfactant properties (in words)” value in data set [1] is recorded as “outstanding interfacial activity”.

On to `C[N+](C)(CCCCCC(=O)NCCC[Si](O[Si](C)(C)C)(O[Si](C)(C)C)O[Si](C)(C)C)CC(=O)O` [Comparative Surfactant, N-(carboxymethyl)-6-((3-(1,1,1,5,5,5-hexamethyl-3-((trimethylsilyl)oxy)trisiloxan-3-yl)propyl)amino)-N,N-dimethyl-6-oxohexan-1-aminium bromide, reference compound], for which, in data set [1] (23° C.), the “critical micelle concentration (CMC)” value is listed as “about 17.28 mmol” and the “plateau value of minimum surface tension” value is listed as “about 29.16 mN/m”. Besides, the “interfacial activity / surfactant properties (in words)” value in data set [1] was “inferior surfactant properties”.

With `CCCCCCCCCCCCCC[N+](C)(C)Cc1ccccc1.[Cl-]` [ADBAC, reference compound], the MIC is reported as 7 +/− 3 ppm against S. aureus (6538) (setting [2]), 16 +/− 7 ppm in the data set with E. coli (8739) (20 ppm max), 7 +/− 3 ppm with S. mutans (25715) (setting [2]) and 48 +/− 20 ppm with P. aeruginosa (9027).

For `CCOC(=O)C[N+](C)(C)CCCCCC(=O)NCCC[Si](O[Si](C)(C)C)(O[Si](C)(C)C)O[Si](C)(C)C` [Surfactant 2, N-(2-ethoxy-2-oxoethyl)-6-((3-(1,1,1,5,5,5-hexamethyl-3-((trimethylsilyl)oxy)trisiloxan-3-yl)propyl)amino)-N,N-dimethyl-6-oxohexan-1-aminium bromide], in data set [1] (23° C.), the “critical micelle concentration (CMC)” value is “about 0.2171 mmol” and the “plateau value of minimum surface tension” value is listed as “around 20.36 mN/m”. In data set [1], the “interfacial activity / surfactant properties (in words)” value is recorded as “outstanding interfacial activity”.

As for `C[N+](C)(CCCCCC(=O)O)CCCCCC(=O)NCCC[Si](O[Si](C)(C)C)(O[Si](C)(C)C)O[Si](C)(C)C` [Surfactant 9, N-(5-carboxypentyl)-6-((3-(1,1,1,5,5,5-hexamethyl-3-((trimethylsilyl)oxy)trisiloxan-3-yl)propyl)amino)-N,N-dimethyl-6-oxohexan-1-aminium bromide], the MIC in the data set with S. aureus (6538) (Staphylococcus aureus, 24 hours, serial dilution 1.7 fold, 400 ppm max, read-out: MIC) was found to be 138 µg/mL; with S. mutans (25715) (Streptococcus mutans, 24 hours, serial dilution 1.7 fold, 400 ppm max, read-out: MIC), 81 µg/mL. In addition, in data set [1] (23° C.), the “critical micelle concentration (CMC)” value is “about 0.2237 mmol”. Besides, the “plateau value of minimum surface tension” value in data set [1] (23° C.) was “about 20.52 mN/m”. Moreover, in data set [1], the “interfacial activity / surfactant properties (in words)” value is recorded as “excellent interfacial activity”.

For `C[N+](C)(CCCCCC(=O)NCCC[Si](O[Si](C)(C)C)(O[Si](C)(C)C)O[Si](C)(C)C)Cc1ccccc1` [Surfactant 1, N-benzyl-6-((3-(1,1,1,5,5,5-hexamethyl-3-((trimethylsilyl)oxy)trisiloxan-3-yl)propyl)amino)-N,N-dimethyl-6-oxohexan-1-aminium bromide], the “plateau value of minimum surface tension” value in data set [1] (23° C.) was “around 20.67 mN/m”. Besides, in data set [1] (pH 8, 23° C.), the “critical micelle concentration (CMC)” value is given as “about 9.883 mmol”. In addition, in data set [1], the “interfacial activity / surfactant properties (in words)” value was “outstanding interfacial activity”.

`C[N+](C)(CCCO)CCCCCC(=O)NCCC[Si](O[Si](C)(C)C)(O[Si](C)(C)C)O[Si](C)(C)C` [Surfactant 7, 6-((3-(1,1,1,5,5,5-hexamethyl-3-((trimethylsilyl)oxy)trisiloxan-3-yl)propyl)amino)-N-(3-hydroxypropyl)-N,N-dimethyl-6-oxohexan-1-aminium iodide]: the MIC in the data set on E. coli (8739) (Escherichia coli, 400 ppm max, read-out: MIC) was found to be 81 µg/mL. Besides, in data set [1] (23° C.), the “critical micelle concentration (CMC)” value was “about 0.4568 mmol” and the “plateau value of minimum surface tension” value is “about 20.61 mN/m”. For the same compound, the “interfacial activity / surfactant properties (in words)” value in data set [1] is reported as “outstanding interfacial activity”. The MIC in the data set on P. aeruginosa (9027) (Pseudomonas aeruginosa, read-out: MIC) turned out to be 81 µg/mL.
